Assay results published in the supplement of paper PMC13380429.

Legend:
Details in all cases: 72 h
Caco-2 [1] = assay: cell viability relative to DMSO; higher = less toxic
Calu-3 [2] = assay: as above
HepG2 [3] = assay: as above
U2OS [4] = assay: as above
Vero E6 [5] = assay: as above
Caco-2 [6] = assay: relative viability EC50 (midpoint between 100% and the lowest measured viability); higher = less toxic
Calu-3 [7] = assay: as above
HepG2 [8] = assay: as above
U2OS [9] = assay: as above
Vero E6 [10] = assay: as above
Caco-2 [11] = assay: drug sensitivity score (DSS) for viability; higher = more toxic; extreme values may be limits of the assay
Calu-3 [12] = assay: as above
HepG2 [13] = assay: as above
U2OS [14] = assay: as above
Vero E6 [15] = assay: as above

SMILES	cell viability (Caco-2 [1]; 1 nM) [%]	cell viability (Caco-2 [1]; 10 nM) [%]	cell viability (Caco-2 [1]; 100 nM) [%]	cell viability (Caco-2 [1]; 1000 nM) [%]	cell viability (Caco-2 [1]; 10000 nM) [%]	cell viability (Calu-3 [2]; 1 nM) [%]	cell viability (Calu-3 [2]; 10 nM) [%]	cell viability (Calu-3 [2]; 100 nM) [%]	cell viability (Calu-3 [2]; 1000 nM) [%]	cell viability (Calu-3 [2]; 10000 nM) [%]	cell viability (HepG2 [3]; 1 nM) [%]	cell viability (HepG2 [3]; 10 nM) [%]	cell viability (HepG2 [3]; 100 nM) [%]	cell viability (HepG2 [3]; 1000 nM) [%]	cell viability (HepG2 [3]; 10000 nM) [%]	cell viability (U2OS [4]; 1 nM) [%]	cell viability (U2OS [4]; 10 nM) [%]	cell viability (U2OS [4]; 100 nM) [%]	cell viability (U2OS [4]; 1000 nM) [%]	cell viability (U2OS [4]; 10000 nM) [%]	cell viability (Vero E6 [5]; 1 nM) [%]	cell viability (Vero E6 [5]; 10 nM) [%]	cell viability (Vero E6 [5]; 100 nM) [%]	cell viability (Vero E6 [5]; 1000 nM) [%]	cell viability (Vero E6 [5]; 10000 nM) [%]	relative viability EC50 (Caco-2 [6]) [µM]	relative viability EC50 (Calu-3 [7]) [µM]	relative viability EC50 (HepG2 [8]) [µM]	relative viability EC50 (U2OS [9]) [µM]	relative viability EC50 (Vero E6 [10]) [µM]	drug sensitivity score (Caco-2 [11])	drug sensitivity score (Calu-3 [12])	drug sensitivity score (HepG2 [13])	drug sensitivity score (U2OS [14])	drug sensitivity score (Vero E6 [15])
Cc1cc(-c2cc(OC(=O)c3ccccc3)ccc2Cl)cc2nnc(Nc3ccc(OCCN4CCCC4)cc3)nc12	98.1	95.6	99	93	116	102	115	90.9	102	104	108	107	95.2	89	107	98.3	99	101	100	102	98.4	97.3	97.2	96.9	112	> 10	> 10	> 10	> 10	> 10	0	0	0	0	0
Cc1cc(NCCO)nc(-c2ccc(Br)cc2)n1	95.3	91.8	104	93.1	97	105	87.6	99.5	109	98.1	97.4	98.9	86.9	95.8	94.3	99.5	100	99.7	95.8	99.7	102	101	93.1	93.9	84.6	> 10	> 10	> 10	> 10	> 10	0	0	0	0	0.3
Cc1ccc(CC2(O)CCN(CCOc3ccc(O)cc3)CC2)cc1	103	101	95.5	91.7	92.2	110	96.5	91.7	95.9	96.9	100	90.4	108	90.3	84.6	100	96.8	97.8	97.1	99.7	103	101	99.4	99.6	93.1	> 10	> 10	> 10	> 10	> 10	0	0	1	0	0
Cc1ccc(Sc2cncc3sc(C(N)=O)cc23)cc1	97.7	92.1	96.5	89.2	90.8	95.7	102	89.6	90.9	80.6	94.4	105	86.7	87.6	87.7	100	97.5	110	108	113	94.3	98.3	82	91.4	98.1	> 10	> 10	> 10	> 10	> 10	0	1.2	1.6	0	0
NC1CCN(c2cccc(Cl)n2)CC1	95.9	97	96.6	103	96.5	89.4	93	99.5	87.9	102	94.8	100	102	111	101	101	101	101	102	95.2	101	100	94.3	96	96.2	> 10	> 10	> 10	> 10	> 10	0	0	0	0	0
NC[C@@](O)(c1ccc(Cl)cc1)c1ccc(-c2cn[nH]c2)cc1	93.7	104	104	99.9	70	98.5	99.9	119	144	105	89.6	93.2	111	93.8	79.5	104	103	95.5	94.6	44.4	101	104	97.5	70.5	30.7		> 10	> 10	2.36	1.16	1.3	0	1.4	3.9	7.4
O=C(O)c1cnn(-c2nc3cc(OC(F)(F)F)c(Cl)cc3[nH]2)c1	104	92.7	97.6	103	93.6	89.5	106	105	102	98.5	93.8	96.2	91.9	104	88.1	101	96	90.3	88.8	93.3	97.2	104	100	103	93.7	> 10	> 10	> 10	> 10	> 10	0	0	0	0.5	0
